# Experiments:
# hTREK2 = target: T1, hTREK2 (Homo sapiens, UniProt P57789); test: Whole-cell patch clamp, transiently transfected tsA-201 cells, TREK2; assay type: cell-based; details: 1 μM, n = 6
# T1 construct: expressed in transfected cells; host or cells: tsA-201, transient, pcDNA3.1 vector
# Experimental: (§1) Recordings of hTREK1, hTREK1∆N, hTREK2, hTRAAK and […] currents from transiently transfected tsA‐201 cells were performed using methods as described in Veale and Mathie (2016). Briefly, the pcDNA3.1 vector was cloned with the gene of interest, and these vectors and a similar vector containing GFP were incorporated into the tsA201 cells (0.5 μg per well) using the calcium phosphate method. The cells were incubated for 6–12 h at 37°C in […] and 5% carbon dioxide. Cells were then washed using a PBS solution and used for experiments after 24 h.
# (§2) Currents were recorded using whole‐cell patch‐clamp using an Axopatch 1D amplifier. Cells were placed in a recording chamber filled with an external medium composed of 145 mM, NaCl, 2.5 mM KCl, 3 mM MgCl2, 1 mM CaCl2 and 10 mM HEPES (pH to 7.4, using NaOH). The internal medium used in the glass pipette comprised 150 mM KCl, 3 mM MgCl2, 5 mM (or 0.1 mM) EGTA and 10 mM HEPES (pH to 7.4, using KOH). GI‐530159 was applied by bath perfusion. Currents were recorded and analysed using pCLAMP 10.2 software Microsoft Excel. The voltage protocol used for recording current through K2P channels was as previously described (Veale and Mathie, 2016). For analysis, we measured the current difference between the −80 and −40 mV steps.
# K2P18.1 (TRESK) = target: T2, K2P18.1 (TRESK) (Homo sapiens, UniProt Q7Z418); test: Manual patch clamp in recombinant cell lines, TRESK; assay type: cell-based; details: 10 μM; n = 4
# T2 construct: expressed in transfected cells
# TASK2 (K2P5.1) = TASK2 (K2P5.1) (Homo sapiens, UniProt O95279); test: Rb+ efflux assay, TASK2; assay type: cell-based
# Kv7.1 = Kv7.1 (Homo sapiens, UniProt P51787); test: Rb+ efflux assay, Kv7.1; assay type: cell-based
# Kv7.2 = Kv7.2 (Homo sapiens, UniProt O43526); test: Rb+ efflux assay, Kv7.2; assay type: cell-based
# NaV1.2 = NaV1.2 (Homo sapiens, UniProt Q99250); test: Sodium channel selectivity, NaV1.2; assay type: cell-based; details: read-out: EC50 against NaV1.2
# Kv11.1 (hERG) = Kv11.1 (hERG) (Homo sapiens, UniProt Q12809); details: 10 μM
# hTREK1 [1] = target: T3, hTREK1 (Homo sapiens, UniProt O95069); test: 86Rb efflux from CHO–hTREK1 cells; assay type: cell-based; design: expressed in transfected cells; details: 60 min exposure, fit of logistic equation
# T3 sequence (O95069 1-426): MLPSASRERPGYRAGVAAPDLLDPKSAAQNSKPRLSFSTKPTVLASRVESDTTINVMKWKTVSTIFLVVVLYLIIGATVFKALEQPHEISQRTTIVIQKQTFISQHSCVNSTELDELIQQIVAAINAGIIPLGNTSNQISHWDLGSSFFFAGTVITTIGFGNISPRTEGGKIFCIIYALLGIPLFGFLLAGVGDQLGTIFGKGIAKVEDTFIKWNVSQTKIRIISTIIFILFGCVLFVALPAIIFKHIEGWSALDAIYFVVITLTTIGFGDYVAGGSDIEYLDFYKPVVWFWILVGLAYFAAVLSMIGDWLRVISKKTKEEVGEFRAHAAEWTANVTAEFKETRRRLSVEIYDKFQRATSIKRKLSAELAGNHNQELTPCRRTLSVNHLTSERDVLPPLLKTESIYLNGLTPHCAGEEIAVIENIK
# Experimental: CHO–hTREK1 cells were plated on 96‐well, tissue culture‐treated clear plates (92 696) the day before the assay and incubated overnight at 37°C in the presence of 1 μCi·mL^−1 86Rubidium (Rb, NEZ072, Perkin Elmer, Waltham MA, USA). Prior to commencement of the assay, the ^86Rb spiked media were removed from the plate, and cells were washed four times with 100 μL of a 5 mM K^+ ‘Earle's balance salt solution’ (EBSS) buffer containing 135 mM NaCl, 5.4 mM KCl, 1.8 mM CaCl2, 0.8 mM MgCl2,10 mM HEPES and 5 mM glucose, pH 7.4 (adjusted with NaOH). […] Both counting plates were then read on the Wallac Microbeta to measure ^86Rb content [counts per min (CPM)]. % ^86Rb efflux values were calculated as follows: ^86Rbefflux%cell content=CPMin efflux buffer/CPMin efflux buffer+CPMin cell lysate*100.
# Magnitude of ^86Rb efflux stimulation was calculated as follows: %Activation=%efflux test well−efflux in5.4mMK^+EBSS/Efflux in70mMK^+EBSS−efflux in5.4mMK^+EBSS*100.
# Half maximal activation of ^86Rb efflux (EC50) value was calculated using IDBS Xlfit using a four‐parameter logistic equation and expressed as mean ± SEM.
# hTREK1 [2] = target: T3, hTREK1; test: Whole-cell patch clamp, transiently transfected tsA-201 cells, TREK1; assay type: cell-based; design: expressed in transfected cells; host or cells: tsA-201, transient, pcDNA3.1 vector, GFP from a separate vector; details: 1 μM, n = 6
# Experimental: as §1, §2
# Chain of Kv11.1 (hERG) (Q12809 whole entry): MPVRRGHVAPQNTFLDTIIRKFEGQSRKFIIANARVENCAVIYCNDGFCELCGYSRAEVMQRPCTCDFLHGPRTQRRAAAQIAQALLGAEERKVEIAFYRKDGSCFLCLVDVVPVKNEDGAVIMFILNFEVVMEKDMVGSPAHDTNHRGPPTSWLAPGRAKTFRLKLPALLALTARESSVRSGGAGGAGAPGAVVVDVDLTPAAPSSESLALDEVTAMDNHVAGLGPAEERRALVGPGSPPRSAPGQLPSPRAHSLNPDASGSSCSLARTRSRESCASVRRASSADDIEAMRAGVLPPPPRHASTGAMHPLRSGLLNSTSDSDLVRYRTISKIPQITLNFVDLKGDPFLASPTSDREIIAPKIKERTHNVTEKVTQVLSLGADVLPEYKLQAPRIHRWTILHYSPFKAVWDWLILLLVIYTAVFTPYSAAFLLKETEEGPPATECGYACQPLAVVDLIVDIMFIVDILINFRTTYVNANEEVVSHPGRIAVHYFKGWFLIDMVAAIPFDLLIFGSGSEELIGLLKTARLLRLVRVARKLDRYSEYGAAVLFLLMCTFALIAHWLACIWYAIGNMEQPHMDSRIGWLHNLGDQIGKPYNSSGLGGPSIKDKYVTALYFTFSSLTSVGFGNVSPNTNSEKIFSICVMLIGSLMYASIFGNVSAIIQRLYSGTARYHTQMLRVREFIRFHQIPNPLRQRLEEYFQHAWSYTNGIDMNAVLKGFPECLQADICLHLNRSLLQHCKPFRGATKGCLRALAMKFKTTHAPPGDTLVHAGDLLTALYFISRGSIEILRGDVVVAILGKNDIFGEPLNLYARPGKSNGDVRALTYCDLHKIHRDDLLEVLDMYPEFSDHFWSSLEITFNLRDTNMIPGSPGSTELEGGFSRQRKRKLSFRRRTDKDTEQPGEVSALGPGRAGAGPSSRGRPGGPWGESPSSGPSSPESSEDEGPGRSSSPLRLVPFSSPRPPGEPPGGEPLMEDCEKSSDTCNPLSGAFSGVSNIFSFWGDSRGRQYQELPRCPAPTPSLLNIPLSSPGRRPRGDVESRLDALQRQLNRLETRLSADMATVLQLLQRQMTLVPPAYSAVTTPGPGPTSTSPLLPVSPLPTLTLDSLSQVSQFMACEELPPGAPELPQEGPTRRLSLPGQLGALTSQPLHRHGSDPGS
# T2 sequence (Q7Z418 whole entry, species assumed): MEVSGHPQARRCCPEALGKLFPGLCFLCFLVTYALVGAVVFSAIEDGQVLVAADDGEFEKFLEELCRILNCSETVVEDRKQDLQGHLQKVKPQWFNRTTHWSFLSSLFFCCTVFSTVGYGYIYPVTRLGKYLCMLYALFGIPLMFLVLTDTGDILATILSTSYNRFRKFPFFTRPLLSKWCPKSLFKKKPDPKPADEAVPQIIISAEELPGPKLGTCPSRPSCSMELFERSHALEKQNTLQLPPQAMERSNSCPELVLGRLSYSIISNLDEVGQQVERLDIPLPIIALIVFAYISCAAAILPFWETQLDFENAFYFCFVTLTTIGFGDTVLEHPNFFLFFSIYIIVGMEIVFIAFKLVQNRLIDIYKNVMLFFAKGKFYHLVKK
# Chain of TASK2 (K2P5.1) (O95279 whole entry, species assumed): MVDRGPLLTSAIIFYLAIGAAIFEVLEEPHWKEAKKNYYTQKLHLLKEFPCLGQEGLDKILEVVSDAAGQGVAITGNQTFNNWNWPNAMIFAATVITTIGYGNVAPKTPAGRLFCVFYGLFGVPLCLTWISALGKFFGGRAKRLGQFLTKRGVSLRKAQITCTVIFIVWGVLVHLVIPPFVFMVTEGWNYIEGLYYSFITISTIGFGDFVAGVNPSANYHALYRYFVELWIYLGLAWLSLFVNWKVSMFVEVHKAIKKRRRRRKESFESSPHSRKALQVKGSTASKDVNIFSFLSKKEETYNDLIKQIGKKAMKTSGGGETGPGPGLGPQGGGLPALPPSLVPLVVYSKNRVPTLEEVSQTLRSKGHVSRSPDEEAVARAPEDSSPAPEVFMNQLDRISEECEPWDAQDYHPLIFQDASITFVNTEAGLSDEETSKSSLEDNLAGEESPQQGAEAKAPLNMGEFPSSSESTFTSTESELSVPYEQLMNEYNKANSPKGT
# Chain of NaV1.2 (Q99250 whole entry): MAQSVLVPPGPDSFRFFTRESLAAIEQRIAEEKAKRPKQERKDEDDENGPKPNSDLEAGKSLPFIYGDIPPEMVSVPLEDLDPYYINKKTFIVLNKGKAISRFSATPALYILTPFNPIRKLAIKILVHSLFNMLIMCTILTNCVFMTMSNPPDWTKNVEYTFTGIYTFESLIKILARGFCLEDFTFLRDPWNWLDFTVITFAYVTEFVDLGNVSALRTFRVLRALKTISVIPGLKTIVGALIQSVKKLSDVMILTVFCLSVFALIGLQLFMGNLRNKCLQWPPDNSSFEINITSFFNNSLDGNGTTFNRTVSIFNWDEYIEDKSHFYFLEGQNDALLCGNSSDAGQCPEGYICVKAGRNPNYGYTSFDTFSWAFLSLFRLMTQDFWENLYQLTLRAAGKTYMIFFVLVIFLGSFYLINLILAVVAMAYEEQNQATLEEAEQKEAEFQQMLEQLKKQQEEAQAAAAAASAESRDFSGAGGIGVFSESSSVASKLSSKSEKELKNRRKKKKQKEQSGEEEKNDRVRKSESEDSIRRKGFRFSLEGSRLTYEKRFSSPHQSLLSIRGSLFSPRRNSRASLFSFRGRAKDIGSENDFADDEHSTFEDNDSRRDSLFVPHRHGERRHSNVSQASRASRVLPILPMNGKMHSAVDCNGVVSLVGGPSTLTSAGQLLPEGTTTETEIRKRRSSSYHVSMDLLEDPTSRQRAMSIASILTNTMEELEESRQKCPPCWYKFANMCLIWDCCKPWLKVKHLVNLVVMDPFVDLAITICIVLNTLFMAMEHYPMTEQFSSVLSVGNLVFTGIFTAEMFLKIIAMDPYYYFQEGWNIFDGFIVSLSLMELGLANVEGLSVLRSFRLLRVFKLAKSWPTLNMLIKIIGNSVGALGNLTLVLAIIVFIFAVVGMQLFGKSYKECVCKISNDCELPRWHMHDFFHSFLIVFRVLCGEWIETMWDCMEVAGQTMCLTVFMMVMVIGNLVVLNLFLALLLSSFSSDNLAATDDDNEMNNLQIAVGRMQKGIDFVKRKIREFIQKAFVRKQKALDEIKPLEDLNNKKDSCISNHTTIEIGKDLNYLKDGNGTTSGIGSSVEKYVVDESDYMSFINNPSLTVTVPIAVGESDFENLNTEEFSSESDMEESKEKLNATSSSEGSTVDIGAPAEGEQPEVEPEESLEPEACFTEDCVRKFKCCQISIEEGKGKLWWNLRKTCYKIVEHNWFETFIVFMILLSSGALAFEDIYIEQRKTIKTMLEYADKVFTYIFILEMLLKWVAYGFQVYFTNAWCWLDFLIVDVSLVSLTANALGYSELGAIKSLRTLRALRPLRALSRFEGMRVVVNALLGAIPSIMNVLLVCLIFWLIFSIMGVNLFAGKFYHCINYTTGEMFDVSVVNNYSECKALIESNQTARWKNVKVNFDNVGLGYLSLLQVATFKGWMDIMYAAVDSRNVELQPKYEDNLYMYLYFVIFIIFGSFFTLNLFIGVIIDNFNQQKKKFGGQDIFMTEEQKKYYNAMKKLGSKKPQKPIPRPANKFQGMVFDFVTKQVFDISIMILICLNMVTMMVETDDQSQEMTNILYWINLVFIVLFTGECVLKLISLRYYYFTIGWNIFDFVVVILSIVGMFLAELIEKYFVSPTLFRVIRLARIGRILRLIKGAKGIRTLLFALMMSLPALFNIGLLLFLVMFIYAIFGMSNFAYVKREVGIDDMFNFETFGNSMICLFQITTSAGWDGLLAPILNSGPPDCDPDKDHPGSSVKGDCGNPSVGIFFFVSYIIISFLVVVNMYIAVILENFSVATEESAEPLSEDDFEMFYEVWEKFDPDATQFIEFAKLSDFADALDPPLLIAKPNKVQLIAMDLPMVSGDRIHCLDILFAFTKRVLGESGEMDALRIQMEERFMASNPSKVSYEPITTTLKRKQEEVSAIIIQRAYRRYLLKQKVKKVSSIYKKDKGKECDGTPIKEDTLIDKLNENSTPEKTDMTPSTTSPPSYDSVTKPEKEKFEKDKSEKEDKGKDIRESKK
# T1 sequence (P57789 whole entry): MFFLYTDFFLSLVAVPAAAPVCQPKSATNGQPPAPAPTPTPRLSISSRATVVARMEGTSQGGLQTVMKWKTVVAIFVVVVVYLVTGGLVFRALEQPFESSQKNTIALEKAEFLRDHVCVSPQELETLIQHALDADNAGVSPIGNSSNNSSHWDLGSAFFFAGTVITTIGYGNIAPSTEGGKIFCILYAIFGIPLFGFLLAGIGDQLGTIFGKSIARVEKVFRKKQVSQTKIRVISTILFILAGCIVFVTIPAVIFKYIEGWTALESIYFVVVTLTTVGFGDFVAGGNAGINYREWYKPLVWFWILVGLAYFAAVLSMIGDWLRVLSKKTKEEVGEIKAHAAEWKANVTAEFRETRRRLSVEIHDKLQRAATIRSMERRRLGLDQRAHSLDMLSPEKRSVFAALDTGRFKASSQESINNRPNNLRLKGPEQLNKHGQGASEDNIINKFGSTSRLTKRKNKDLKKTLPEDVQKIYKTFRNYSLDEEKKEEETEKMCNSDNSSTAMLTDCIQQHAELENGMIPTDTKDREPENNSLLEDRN
smiles,measurement,setting,value
"Nc1ccc(Oc2ccc(C(c3ccc(Oc4ccc(N)cc4)cc3)(C(F)(F)F)C(F)(F)F)cc2)cc1 [GI‐530159, 4,4′‐(hexafluoroisopropylidene)bis(p‐phenyleneoxy)dianiline]",enhancement of TREK2 current,hTREK2,42 ± 6%
same,effect on K2P18.1 (TRESK) current,K2P18.1 (TRESK),−2.0 ± 3.5%
same,activator effect on TASK2 (K2P5.1),TASK2 (K2P5.1),no activator effects
same,activator effect on Kv7.1,Kv7.1,no activator effects
same,activator effect on Kv7.2,Kv7.2,no activator effects
same,EC50,NaV1.2,> 100000 nM
same,effect on Kv11.1 (hERG) current,Kv11.1 (hERG),−7.3 ± 5.1%
same,EC50,hTREK1 [1]; read-out: EC50 for stimulation of 86Rb efflux,760 ± 100 nM
same,Emax,"hTREK1 [1]; normalized to 70 mM K, read-out: maximum effect on 86Rb efflux, % of that seen with 70 mM K",142 ± 2%
same,enhancement of TREK1 current,hTREK1 [2],69 ± 12%

# Source: article PMC5980259, “GI‐530159, a novel, selective, mechanosensitive two‐pore‐domain potassium (K2P) channel opener, reduces rat dorsal root ganglion neuron excitability” (British Journal of Pharmacology, 2017)
